Assay results: patent US9808003B2, “Herbicidally active 2-(substituted-phenyl)-cyclopentane-1,3-dione compounds and derivatives thereof” (Syngenta Limited, priority 2013, dated 2017)
Where “and” joins values, the source holds several entries; their conditions need not be identical. Equal values may be shown once.

Experiments:
Assay type in all cases: in vivo
[1] = tested on: Avena fatua (AVEFA); assay: Test 1B glasshouse assay, post-emergence herbicidal activity against grassy weeds; details: 14 DAA
Method in brief: (§1)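 Post-emergence spray, 14-day-old plants, glasshouse 22/16 °C day/night, 16 h light, 65% humidity. Test herbicide typically 60, 90 or 120 g/ha; cloquintocet-mexyl safener 50 g/ha optional at 60, included at 90/120. Scored visually 14 DAA, 0–100% damage, 2 reps averaged.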

[2] = tested on: Setaria viridis (SETVI); assay: as above; details: 14 DAA
Method in brief: as §1

[3] = tested on: Alopecurus myosuroides (ALOMY); assay: as above; details: 14 DAA
Method in brief: as §1

[4] = tested on: Poa annua (POAAN); assay: as above; details: 14 DAA
Method in brief: as §1

[5] = tested on: Lolium multiflorum (LOLMU); assay: as above; details: 14 DAA
Method in brief: as §1

[6] = tested on: Avena fatua (AVEFA); assay: Test 1A glasshouse assay, post-emergence herbicidal activity; details: Avena fatua, 312 h, application rate 250 g/ha, 13 days after application, visual (100%=total damage; 0%=no damage), read-out: Post-emergence Herbicidal Activity (% Phytotoxicity) AVEFA
Method in brief: (§2)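 Test species were sown in pots of standard soil and cultivated for 8 days at 24/16 °C (day/night) with 14 h light and 65% humidity. Plants were next sprayed with the formulated active ingredient (acetone/water 50:50, 0.5% Tween 20). Damage was rated visually as % phytotoxicity 13 days later.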

[7] = tested on: Alopecurus myosuroides (ALOMY); assay: as above; details: Alopecurus myosuroides, 312 h, application rate 250 g/ha, 13 days after application, visual (100%=total damage; 0%=no damage), read-out: Post-emergence Herbicidal Activity (% Phytotoxicity) ALOMY
Method in brief: as §2

[8] = tested on: Winter Barley “Suzuka”; assay: Test 1B glasshouse assay, post-emergence herbicidal activity against cereal crops; details: for Post-emergence herbicidal activity against cereal crops, percentage phytotoxicity, Winter Barley “Suzuka”: 14 DAA
Method in brief: (§3)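 Technical compound in IF50 with acetone, diluted into 0.5% v/v Adigor, sprayed post-emergence on 14-day glasshouse plants (22/16 °C, 16 h light, 65% humidity), typically at 60, 90 or 120 g/ha, with or without 50 g/ha cloquintocet-mexyl safener. Phytotoxicity scored visually 14 DAA (0–100%), mean of two replicates.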

[9] = tested on: Winter Wheat “Hereward”; assay: as above; details: for Post-emergence herbicidal activity against cereal crops, percentage phytotoxicity, Winter Wheat “Hereward”: 14 DAA
Method in brief: as §3

[10] = tested on: Spring Barley “Harrington”; assay: as above; details: for Post-emergence herbicidal activity against cereal crops, percentage phytotoxicity, Spring Barley “Harrington”: 14 DAA
Method in brief: as §3

[11] = 30 g/ha herbicide, 50 g/ha cloquintocet-mexyl
[12] = 45 g/ha herbicide, 50 g/ha cloquintocet-mexyl
[13] = 60 g/ha herbicide, 0 g/ha cloquintocet-mexyl
[14] = 60 g/ha herbicide, 50 g/ha cloquintocet-mexyl
[15] = herbicide 30 g/ha, cloquintocet-mexyl 50 g/ha
[16] = herbicide 60 g/ha, cloquintocet-mexyl 0 g/ha
[17] = herbicide 60 g/ha, cloquintocet-mexyl 50 g/ha
[18] = herbicide 45 g/ha, cloquintocet-mexyl 50 g/ha

## Cc1cc(C)c(C2C(=O)CC(CCNC(=O)c3cccc(F)n3)C2=O)c(C)c1 (racemic) [Compound A89]
[1]; [11]
  Post-emergence herbicidal activity, percentage phytotoxicity, AVEFA: 83% and 85%
[1]; [12]
  Post-emergence herbicidal activity, percentage phytotoxicity, AVEFA: 85%
[1]; [13]
  Post-emergence herbicidal activity, percentage phytotoxicity, AVEFA: 90% and 97%
[1]; [14]
  Post-emergence herbicidal activity, percentage phytotoxicity, AVEFA: 90% and 93%
[2]; [11]
  Post-emergence herbicidal activity, percentage phytotoxicity, SETVI: 100% and 95%
[2]; [12]
  Post-emergence herbicidal activity, percentage phytotoxicity, SETVI: 100%
[2]; [13]
  Post-emergence herbicidal activity, percentage phytotoxicity, SETVI: 100% and 99%
[2]; [14]
  Post-emergence herbicidal activity, percentage phytotoxicity, SETVI: 100%
[3]; [11]
  Post-emergence herbicidal activity, percentage phytotoxicity, ALOMY: 88% and 80%
[3]; [12]
  Post-emergence herbicidal activity, percentage phytotoxicity, ALOMY: 97%
[3]; [13]
  Post-emergence herbicidal activity, percentage phytotoxicity, ALOMY: 98% and 99%
[3]; [14]
  Post-emergence herbicidal activity, percentage phytotoxicity, ALOMY: 98%
[4]; [11]
  Post-emergence herbicidal activity, percentage phytotoxicity, POAAN: 0%
[4]; [12]
  Post-emergence herbicidal activity, percentage phytotoxicity, POAAN: 3%
[4]; [13]
  Post-emergence herbicidal activity, percentage phytotoxicity, POAAN: 25% and 15%
[5]; [11]
  Post-emergence herbicidal activity, percentage phytotoxicity, LOLMU: 90% and 93%
[5]; [12]
  Post-emergence herbicidal activity, percentage phytotoxicity, LOLMU: 99%
[5]; [13]
  Post-emergence herbicidal activity, percentage phytotoxicity, LOLMU: 100%
[5]; [14]
  Post-emergence herbicidal activity, percentage phytotoxicity, LOLMU: 100% and 95%
[6]
  pest or weed control at 250 g/ha: 100%
[7]
  pest or weed control at 250 g/ha: 100%
[8]; [11]
  Post-emergence herbicidal activity against cereal crops, percentage phytotoxicity, Winter Barley “Suzuka”: 8%
[8]; [12]
  Post-emergence herbicidal activity against cereal crops, percentage phytotoxicity, Winter Barley “Suzuka”: 20%
[8]; [13]
  Post-emergence herbicidal activity against cereal crops, percentage phytotoxicity, Winter Barley “Suzuka”: 95%
[8]; [14]
  Post-emergence herbicidal activity against cereal crops, percentage phytotoxicity, Winter Barley “Suzuka”: 73%
[8]; [15]
  Percentage Phytotoxicity Winter Barley “Suzuka”: 8%
[8]; [16]
  Percentage Phytotoxicity Winter Barley “Suzuka”: 90%
[8]; [17]
  Percentage Phytotoxicity Winter Barley “Suzuka”: 25%
[9]; [11]
  Post-emergence herbicidal activity against cereal crops, percentage phytotoxicity, Winter Wheat “Hereward”: 15%
[9]; [12]
  Post-emergence herbicidal activity against cereal crops, percentage phytotoxicity, Winter Wheat “Hereward”: 25%
[9]; [13]
  Post-emergence herbicidal activity against cereal crops, percentage phytotoxicity, Winter Wheat “Hereward”: 60%
[9]; [14]
  Post-emergence herbicidal activity against cereal crops, percentage phytotoxicity, Winter Wheat “Hereward”: 28%
[9]; [15]
  Percentage Phytotoxicity Winter Wheat “Hereward”: 10%
[9]; [16]
  Percentage Phytotoxicity Winter Wheat “Hereward”: 75%
[9]; [17]
  Percentage Phytotoxicity Winter Wheat “Hereward”: 25%
[10]; [11]
  Post-emergence herbicidal activity against cereal crops, percentage phytotoxicity, Spring Barley “Harrington”: 13%
[10]; [12]
  Post-emergence herbicidal activity against cereal crops, percentage phytotoxicity, Spring Barley “Harrington”: 55%
[10]; [13]
  Post-emergence herbicidal activity against cereal crops, percentage phytotoxicity, Spring Barley “Harrington”: 95%
[10]; [14]
  Post-emergence herbicidal activity against cereal crops, percentage phytotoxicity, Spring Barley “Harrington”: 85%
[10]; [15]
  Percentage Phytotoxicity Spring Barley “Harrington”: 13%
[10]; [16]
  Percentage Phytotoxicity Spring Barley “Harrington”: 88%
[10]; [17]
  Percentage Phytotoxicity Spring Barley “Harrington”: 43%

## Cc1cc(C)c(C2C(=O)CC(CCNC(=O)c3ccc(Br)cn3)C2=O)c(C)c1 (racemic) [Compound A120, 5-bromo-N-{2-[2,4-dioxo-3-(2,4,6-trimethylphenyl)cyclopentyl]ethyl}pyridine-2-carboxamide]
[1]; [11]
  Post-emergence herbicidal activity, percentage phytotoxicity, AVEFA: 75%
[1]; [12]
  Post-emergence herbicidal activity, percentage phytotoxicity, AVEFA: 78%
[1]; [13]
  Post-emergence herbicidal activity, percentage phytotoxicity, AVEFA: 85%
[1]; [14]
  Post-emergence herbicidal activity, percentage phytotoxicity, AVEFA: 78%
[2]; [11]
  Post-emergence herbicidal activity, percentage phytotoxicity, SETVI: 100%
[2]; [12]
  Post-emergence herbicidal activity, percentage phytotoxicity, SETVI: 100%
[2]; [13]
  Post-emergence herbicidal activity, percentage phytotoxicity, SETVI: 100%
[2]; [14]
  Post-emergence herbicidal activity, percentage phytotoxicity, SETVI: 100%
[3]; [11]
  Post-emergence herbicidal activity, percentage phytotoxicity, ALOMY: 75%
[3]; [12]
  Post-emergence herbicidal activity, percentage phytotoxicity, ALOMY: 80%
[3]; [13]
  Post-emergence herbicidal activity, percentage phytotoxicity, ALOMY: 85%
[3]; [14]
  Post-emergence herbicidal activity, percentage phytotoxicity, ALOMY: 80%
[4]; [11]
  Post-emergence herbicidal activity, percentage phytotoxicity, POAAN: 3%
[4]; [12]
  Post-emergence herbicidal activity, percentage phytotoxicity, POAAN: 3%
[4]; [13]
  Post-emergence herbicidal activity, percentage phytotoxicity, POAAN: 10%
[4]; [14]
  Post-emergence herbicidal activity, percentage phytotoxicity, POAAN: 3%
[5]; [11]
  Post-emergence herbicidal activity, percentage phytotoxicity, LOLMU: 98%
[5]; [12]
  Post-emergence herbicidal activity, percentage phytotoxicity, LOLMU: 99%
[5]; [13]
  Post-emergence herbicidal activity, percentage phytotoxicity, LOLMU: 100%
[5]; [14]
  Post-emergence herbicidal activity, percentage phytotoxicity, LOLMU: 99%
[6]
  pest or weed control at 250 g/ha: 90%
[7]
  pest or weed control at 250 g/ha: 100%
[8]; [15]
  Percentage Phytotoxicity Winter Barley “Suzuka”: 15%
[8]; [18]
  Percentage Phytotoxicity Winter Barley “Suzuka”: 40%
[8]; [16]
  Percentage Phytotoxicity Winter Barley “Suzuka”: 88%
[8]; [17]
  Percentage Phytotoxicity Winter Barley “Suzuka”: 40%
[9]; [15]
  Percentage Phytotoxicity Winter Wheat “Hereward”: 38%
[9]; [18]
  Percentage Phytotoxicity Winter Wheat “Hereward”: 50%
[9]; [16]
  Percentage Phytotoxicity Winter Wheat “Hereward”: 68%
[9]; [17]
  Percentage Phytotoxicity Winter Wheat “Hereward”: 50%
[10]; [15]
  Percentage Phytotoxicity Spring Barley “Harrington”: 25%
[10]; [18]
  Percentage Phytotoxicity Spring Barley “Harrington”: 38%
[10]; [16]
  Percentage Phytotoxicity Spring Barley “Harrington”: 78%
[10]; [17]
  Percentage Phytotoxicity Spring Barley “Harrington”: 38%
